{"source": "patent US20250032463A1", "about": "“RAPAMYCIN-CONTAINING PHARMACEUTICAL COMPOSITION” (NOBELPHARMA CO., LTD., priority 2023, published 2025)", "origin": "cited, not measured here", "data": [{"smiles": "CO[C@H]1C[C@@H]2CC[C@@H](C)[C@@](O)(O2)C(=O)C(=O)N2CCCC[C@H]2C(=O)O[C@H]([C@H](C)C[C@@H]2CC[C@@H](O)[C@H](OC)C2)CC(=O)[C@H](C)/C=C(\\C)[C@@H](O)[C@@H](OC)C(=O)[C@H](C)C[C@H](C)/C=C/C=C/C=C/1C", "note": "[rapamycin, Rapamycin]", "values": [{"measurement": "stability in aqueous solvents", "result": "unstable"}]}]}
